Patent US20140303092A1 (CHIMERIX, INC., priority 2011, published 2014)

Experiment: Study HDP-CDV-201: safety and tolerability (adverse events, laboratory abnormalities, discontinuations)
Assay type: in vivo, human (adult allogeneic HSCT recipients)
Conditions: for ALT, subject 4090 / AST, subject 4090 / Alk Phos, subject 4090 / Bilirubin, subject 4090: 100 BIW
Description: Clinical Studies of HDP-CDV were performed and described in detail in the following Examples. For example, HDP-CDV-201 is a placebo-controlled, dose-escalating trial in HSCT CMV (R+) recipients, evaluating the ability of HDP-CDV to prevent or control CMV infection was carried out. Five cohorts were established in which participants or subjects received either placebo or the HDP-CDV orally, in doses ranging from 40 mg weekly (QW) to 200 mg twice weekly (BIW). Subjects who were post-HSCT were enrolled at the time of engraftment and randomized to HDP-CDV or placebo (3 to 1 ratio) and received blinded therapy until approximately 100 day post-transplantation. HDP-CDV doses were 40 mg QW, 100 mg QW, 200 mg QW, 200 mg BIW and 100 mg BIW. Escalation to the next dose was decided by the data monitoring committee after review of the safety data from the previous Cohort. Subjects who developed CMV disease or CMV infection requiring pre-emptive therapy with local standard of care were discontinued from blinded therapy and followed for 4 weeks. Subjects who completed treatment with blinded therapy were followed for 8 weeks post-therapy.
Data from Study HDP-CDV-201 also provided characterization of the safety and tolerability profile of HDP-CDV when administered for the prevention or control of CMV infection in high risk (R^+) post-HSCT adult subjects.
The Safety population (SAFETY) included all randomized subjects who took at least one dose of study treatment. This population was used to summarize safety outcomes based on the treatment actually received, in cases where a subject was treated contrary to the randomization schedule.
The safety and tolerability profile of HDP-CDV, including subject demographics and Baseline characteristics; the AE profile; and laboratory abnormalities of interest were analyzed in the cohorts followed in this investigation.
Subjects completing the treatment period received a full course of study medication; those completing the entire study attended visits through 8 weeks of follow up. Subjects who discontinued treatment may have done so for protocol specified reasons (e.g. development of clinically significant CMV infection requiring preemptive treatment with excluded anti-CMV medications) or for other reasons (e.g., withdrawal, adverse events, loss to follow-up). The disposition of subjects in Study HDP-CDV-201 during the double-blind, placebo-controlled treatment period (through Week 11) is listed by dosing Cohort in TABLE 23.
Adverse events were examined by severity to ensure that all safety signals were identified in this study population. Because of the frequency of events in HSCT recipients, particular attention was given to evaluation of Grade 3 […], 4 (severe), and 5 (fatal) adverse events.
Only those preferred terms for which at least one Grade 3 or higher event was experienced in any treatment group are listed. Cytomegalovirus-related AEs are excluded from this analysis.
HDP-CDV is a lipid conjugate of CDV. Because CDV is known to have adverse effects on renal function and bone marrow, decreased GFR and persistent neutropenia were identified as AEs of special interest. Key renal and hematological (TABLE 30) laboratory parameters were measured and listed below by Study HDP-CDV-201 treatment groups. TABLE 30 includes abnormal levels of serum creatinine, neutrophils, platelets, WBCs, and hemoglobin and includes data at Screening and during the treatment period.
A common metric for unit based dosing of medications is by weight (mg/kg). When the distribution of weights was examined for all subjects participating in the study, the median was 78 kg and the lower 25th percentile weight was approximately 65 kg, which translates to a cut-off of ˜3 mg/kg for a 200 mg total weekly dose. Based upon this approach, a cut-off of 3 mg/kg was used to assess the frequency of diarrhea and associated GI AEs reported for the subjects in Cohorts 3 or 4a (TABLE 40).

Structure (SMILES): CCCCCCCCCCCCCCCCOCCCOP(=O)(O)COC(CO)Cn1ccc(N)nc1=O (stereo not drawn) [HDP-CDV]
- TEAE LFT Abnormal, Grade 4 (200 mg QW): 0
- TEAE LFT Abnormal, Grade 5 (200 mg QW): 0
- TEAE Leukocytosis, Frequency (200 mg QW): 2 (5.1%)
- TEAE Leukocytosis, Grade 2 (200 mg QW): 0
- TEAE Leukocytosis, Grade 3 (200 mg QW): 0
- TEAE Leukocytosis, Grade 4 (200 mg QW): 0
- TEAE Leukocytosis, Grade 5 (200 mg QW): 0
- TEAE Nausea, Frequency (200 mg QW): 11 (28.2%)
- TEAE Nausea, Grade 2 (200 mg QW): 4 (10.3%)
- TEAE Nausea, Grade 3 (200 mg QW): 1 (2.6%)
- TEAE Nausea, Grade 4 (200 mg QW): 0
- TEAE Nausea, Grade 5 (200 mg QW): 0
- TEAE Neutropenia, Frequency (200 mg QW): 4 (10.3%)
- TEAE Neutropenia, Grade 2 (200 mg QW): 1 (2.6%)
- TEAE Neutropenia, Grade 3 (200 mg QW): 3 (7.7%)
- TEAE Neutropenia, Grade 4 (200 mg QW): 0
- TEAE Neutropenia, Grade 5 (200 mg QW): 0
- TEAE Pneumonia, Frequency (200 mg QW): 0
- TEAE Pneumonia, Grade 2 (200 mg QW): 0
- TEAE Pneumonia, Grade 3 (200 mg QW): 0
- TEAE Pneumonia, Grade 4 (200 mg QW): 0
- TEAE Pneumonia, Grade 5 (200 mg QW): 0
- TEAE Pyrexia, Frequency (200 mg QW): 7 (17.9%)
- TEAE Pyrexia, Grade 2 (200 mg QW): 2 (5.1%)
- TEAE Pyrexia, Grade 3 (200 mg QW): 2 (5.1%)
- TEAE Pyrexia, Grade 4 (200 mg QW): 0
- TEAE Pyrexia, Grade 5 (200 mg QW): 0
- TEAE Renal Failure, Frequency (200 mg QW): 0
- TEAE Renal Failure, Grade 2 (200 mg QW): 0
- TEAE Renal Failure, Grade 3 (200 mg QW): 0
- TEAE Renal Failure, Grade 4 (200 mg QW): 0
- TEAE Renal Failure, Grade 5 (200 mg QW): 0
- TEAE Staphylococcal Bacteremia, Frequency (200 mg QW): 1 (2.6%)
- TEAE Staphylococcal Bacteremia, Grade 2 (200 mg QW): 0
- TEAE Staphylococcal Bacteremia, Grade 3 (200 mg QW): 1 (2.6%)
- TEAE Staphylococcal Bacteremia, Grade 4 (200 mg QW): 0
- TEAE Staphylococcal Bacteremia, Grade 5 (200 mg QW): 0
- TEAE Thrombocytopenia, Frequency (200 mg QW): 0
- TEAE Thrombocytopenia, Grade 2 (200 mg QW): 0
- TEAE Thrombocytopenia, Grade 3 (200 mg QW): 0
- TEAE Thrombocytopenia, Grade 4 (200 mg QW): 0
- TEAE Thrombocytopenia, Grade 5 (200 mg QW): 0
- TEAE Vomiting, Frequency (200 mg QW): 6 (15.4%)
- TEAE Vomiting, Grade 2 (200 mg QW): 1 (2.6%)
- TEAE Vomiting, Grade 3 (200 mg QW): 1 (2.6%)
- TEAE Vomiting, Grade 4 (200 mg QW): 0
- TEAE Vomiting, Grade 5 (200 mg QW): 0
- subjects requiring treatment with steroids during the study (200 mg QW): 59%
- proportion of subjects with Grade 3 or higher ALT (200 mg QW (6 of 39)): 15.8%
- subjects who discontinued study medications (200 mg QW, fasted state): 54%
- Subjects Reporting Diarrhea as an AE (200 mg QW, n = 39): 13 (33.3%)
- Discontinuation: Death (200 mg QW, active treatment period): 3 (7.7%) Subject n (%)
- Discontinuation: Adverse event (200 mg QW, active treatment period through Week 11): 7 (17.9%) Subject n (%)
- subjects reporting SAEs involving the gastrointestinal tract (400 mg per week, given as 200 mg BIW): 63%
- ALT, subject 4090 (Treatment Wk 8): 445 U/L
- AST, subject 4090 (Treatment Wk 8): 195 U/L
- Alk Phos, subject 4090 (Treatment Wk 8): Normal
- Bilirubin, subject 4090 (Treatment Wk 8): 44 µmol/L
- ALT, subject 4090 (Treatment Wk 10): 792 U/L
- AST, subject 4090 (Treatment Wk 10): 312 U/L
- Alk Phos, subject 4090 (Treatment Wk 10): Normal
- Bilirubin, subject 4090 (Treatment Wk 10): Normal
- ALT, subject 4008 (200 BIW, Posttreatment Wk 1): 137 U/L
- AST, subject 4008 (200 BIW, Posttreatment Wk 1): Normal
- Bilirubin, subject 4008 (200 BIW, Posttreatment Wk 1): 48 µmol/L
- Alk Phos, subject 4008 (200 BIW, Posttreatment Wk 1, Previously elevated): 117 U/L
- ALT, subject 3001 (200 QW, Post Treatment Wk 1): 375 U/L
- AST, subject 3001 (200 QW, Post Treatment Wk 1): 164 U/L
- Bilirubin, subject 3001 (200 QW, Post Treatment Wk 1): 89 µmol/L
- Alk Phos, subject 3001 (200 QW, Post Treatment Wk 1, elevated): 337 U/L
- ALT, subject 3044 (200 QW, Post Treatment Wk 4): 227 U/L
- AST, subject 3044 (200 QW, Post Treatment Wk 4): Normal
- Bilirubin, subject 3044 (200 QW, Post Treatment Wk 4): 50 µmol/L
- Alk Phos, subject 3044 (200 QW, Post Treatment Wk 4, Previously elevated): 174 U/L
- Grade of hepatobiliary AE symptomatic gallstones, subject 1016 (Cohort 1): 3
- Grade of hepatobiliary AE worsening hyperbilirubinemia, subject 1003 (Cohort 1): 4
- Outcome of hepatobiliary AE symptomatic gallstones, subject 1016 (Cohort 1): recovered/resolved
- Outcome of hepatobiliary AE worsening hyperbilirubinemia, subject 1003 (Cohort 1): not recovered/not
- Relationship of hepatobiliary AE symptomatic gallstones, subject 1016 (Cohort 1): not related
- Relationship of hepatobiliary AE worsening hyperbilirubinemia, subject 1003 (Cohort 1): not related
- subjects discontinued due to neutropenia (Cohort 1): 0 subject(s)
- ALT (Screening) >3 × ULN-5 × ULN, subjects (Cohort 1, 40 mg QW): 0
- ALT (Screening) >5 × ULN-10 × ULN, subjects (Cohort 1, 40 mg QW): 0
- ALT (Screening) >10 × ULN-20 × ULN, subjects (Cohort 1, 40 mg QW): 0
- ALT (Screening) >20 × ULN, subjects (Cohort 1, 40 mg QW): 0
- ALT (any time during therapy) >3 × ULN-5 × ULN, subjects (Cohort 1, 40 mg QW): 2 (8.7%)
- ALT (any time during therapy) >5 × ULN-10 × ULN, subjects (Cohort 1, 40 mg QW): 1 (4.3%)
- ALT (any time during therapy) >10 × ULN-20 × ULN, subjects (Cohort 1, 40 mg QW): 0
- ALT (any time during therapy) >20 × ULN, subjects (Cohort 1, 40 mg QW): 0
- AST (Screening) >3 × ULN-5 × ULN, subjects (Cohort 1, 40 mg QW): 0
- AST (Screening) >5 × ULN-10 × ULN, subjects (Cohort 1, 40 mg QW): 0
- AST (Screening) >10 × ULN-20 × ULN, subjects (Cohort 1, 40 mg QW): 0
- AST (Screening) >20 × ULN, subjects (Cohort 1, 40 mg QW): 0
- AST (any time during therapy) >3 × ULN-5 × ULN, subjects (Cohort 1, 40 mg QW): 1 (4.3%)
- AST (any time during therapy) >5 × ULN-10 × ULN, subjects (Cohort 1, 40 mg QW): 0
- AST (any time during therapy) >10 × ULN-20 × ULN, subjects (Cohort 1, 40 mg QW): 0
- AST (any time during therapy) >20 × ULN, subjects (Cohort 1, 40 mg QW): 0
- Alkaline Phosphatase (Screening) >2.5-5.0 × ULN, subjects (Cohort 1, 40 mg QW): 0
- Alkaline Phosphatase (Screening) >5.0-20.0 × ULN, subjects (Cohort 1, 40 mg QW): 0
- Alkaline Phosphatase (Screening) >20.0 × ULN, subjects (Cohort 1, 40 mg QW): 0
- Alkaline Phosphatase (Screening) >ULN-[…] ULN, subjects (Cohort 1, 40 mg QW): 6 (24.0%)
- Alkaline Phosphatase (any time during therapy) >2.5-5.0 × ULN, subjects (Cohort 1, 40 mg QW): 0
- Alkaline Phosphatase (any time during therapy) >5.0-20.0 × ULN, subjects (Cohort 1, 40 mg QW): 0
- Alkaline Phosphatase (any time during therapy) >20.0 × ULN, subjects (Cohort 1, 40 mg QW): 0
- Alkaline Phosphatase (any time during therapy) >ULN-[…] ULN, subjects (Cohort 1, 40 mg QW): 6 (26.1%)
- GI AE Leading to Study Drug Discontinuation: Abdominal pain, subjects (Cohort 1, 40 mg QW): 0
- GI AE Leading to Study Drug Discontinuation: Diarrhoea, subjects (Cohort 1, 40 mg QW): 0
- GI AE Leading to Study Drug Discontinuation: Dyspepsia, subjects (Cohort 1, 40 mg QW): 0
- GI AE Leading to Study Drug Discontinuation: Nausea, subjects (Cohort 1, 40 mg QW): 0
- GI AE Leading to Study Drug Discontinuation: Vomiting, subjects (Cohort 1, 40 mg QW): 0
- GI AEs Leading to Study Drug Discontinuation: Total subjects discontinued (Cohort 1, 40 mg QW): 0
